{"source": "paper PMC10913484", "about": "“Hydroxyhexylitaconic acids as potent IMP-type metallo-β-lactamase inhibitors for controlling carbapenem resistance in Enterobacterales” (Microbiology Spectrum, 2024)", "key": {"E. coli DH5α pBC-VIM-2": {"system": "E. coli DH5α pBC-VIM-2", "assay": "Susceptibility test (microdilution), transformant", "assay_type": "cell-based", "protocol": "(§1) Susceptibility testing, based on the microdilution method, was performed according to the guidelines of the Clinical and Laboratory Standards Institute ([36])."}, "IMP-1 [1]": {"biological_target": "T1, IMP-1 (Serratia marcescens, UniProt P52699)", "T1 construct": "made in house", "T1 sequence (P52699 19-246, looked up, species assumed)": "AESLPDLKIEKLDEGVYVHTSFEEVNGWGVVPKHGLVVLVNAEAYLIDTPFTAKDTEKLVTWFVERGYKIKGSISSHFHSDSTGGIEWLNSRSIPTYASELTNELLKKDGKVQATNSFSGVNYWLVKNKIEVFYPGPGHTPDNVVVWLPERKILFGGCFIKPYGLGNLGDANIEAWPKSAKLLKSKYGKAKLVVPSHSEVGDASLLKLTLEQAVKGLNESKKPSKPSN", "assay_type": "biochemical", "conditions": "IMP-1 with agent (5 mM stock), dialysis", "protocol": "A total of 5 µL of IMP-1 (100 µM) and 2 µL of EDTA (5 mM) or HHIA (5 mM) were mixed in 100 µL of 20 mM HEPES buffer (pH 7.5) pretreated with Chelex 100 resin (Bio-Rad) and incubated on ice for 30 min. The samples were dialyzed against ultrapure water at 4°C for 6 h using Slide-A-Lyzer Dialysis Cassettes (cutoff, 3.5 K) (Thermo Fisher Scientific) and treated with proteinase K (FUJIFILM Wako Pure Chemical Corporation) at 37°C for 1 h. The zinc concentration in the samples was determined using a Zinc Assay Kit (MG Metallogenics)."}, "IMP-1 [2]": {"biological_target": "T1, IMP-1", "assay_type": "binding", "conditions": "DSF; control protein 52.5°C", "protocol": "The DSF assay was performed using the Protein Thermal Shift Dye Kit (Thermo Fisher Scientific) and StepOnePlus Real-Time PCR Systems (Applied Biosystems) as follows: 2 µL of IMP-1 enzyme (100 µM), 1 µL of EDTA or HHIA solution (5 mM), 2.5 µL of diluted Protein Thermal Shift Dye (32×), 5 µL of Protein Thermal Shift buffer, and 9.5 µL of water were mixed in a test tube and incubated for 15 min at 4°C. Four replicates of each sample were performed. The fluorescence was monitored at 0.7°C increments from 4°C to 99°C. The relative fluorescence units were fitted with the Boltzmann equation using the TSA-CRAFT software to determine the melting point (Tm) ([47])."}, "E. coli 426 (IMP-1)": {"system": "E. coli 426 (IMP-1)", "assay": "Susceptibility test, clinical isolate", "assay_type": "cell-based", "conditions": "Escherichia coli", "protocol": "as §1"}, "[3]": {"system": "K. pneumoniae AR0076 (VIM-1)", "assay": "Susceptibility test, clinical isolate", "assay_type": "cell-based", "conditions": "Klebsiella pneumoniae", "protocol": "as §1"}, "[4]": {"system": "P. penneri E11-M475 (IMP-1)", "assay": "Susceptibility test, clinical isolate", "assay_type": "cell-based", "conditions": "Proteus penneri", "protocol": "as §1"}, "[5]": {"system": "K. pneumoniae MS5674 (NDM-1/VIM-1)", "assay": "Susceptibility test, clinical isolate", "assay_type": "cell-based", "conditions": "Klebsiella pneumoniae", "protocol": "as §1"}, "[6]": {"system": "K. pneumoniae AR0034 (IMP-4)", "assay": "Susceptibility test, clinical isolate", "assay_type": "cell-based", "conditions": "Klebsiella pneumoniae, K. pneumoniae AR0034 (IMP-4)", "protocol": "as §1"}, "[7]": {"system": "E. cloacae NUBL-5 (IMP-1)", "assay": "Susceptibility test, clinical isolate", "assay_type": "cell-based", "conditions": "Enterobacter cloacae", "protocol": "as §1"}, "[8]": {"system": "K. pneumoniae NUBL-23 (IMP-6)", "assay": "Susceptibility test, clinical isolate", "assay_type": "cell-based", "conditions": "Klebsiella pneumoniae", "protocol": "as §1"}, "E. coli NUBL-24 (IMP-1)": {"system": "E. coli NUBL-24 (IMP-1)", "assay": "Susceptibility test, clinical isolate", "assay_type": "cell-based", "conditions": "E. coli NUBL-24 (IMP-1); for MIC: Escherichia coli", "protocol": "as §1"}, "E. coli NUBL-22 (IMP-6)": {"system": "E. coli NUBL-22 (IMP-6)", "assay": "Susceptibility test, clinical isolate", "assay_type": "cell-based", "conditions": "Escherichia coli", "protocol": "as §1"}, "[9]": {"system": "K. pneumoniae NUBL-8 (IMP-1)", "assay": "Susceptibility test, clinical isolate", "assay_type": "cell-based", "conditions": "Klebsiella pneumoniae", "protocol": "as §1"}, "E. coli 465 (IMP-1)": {"system": "E. coli 465 (IMP-1)", "assay": "Susceptibility test, clinical isolate", "assay_type": "cell-based", "conditions": "Escherichia coli", "protocol": "as §1"}, "[10]": {"system": "K. oxytoca NUBL-827 (IMP-1)", "assay": "Susceptibility test, clinical isolate", "assay_type": "cell-based", "conditions": "Klebsiella oxytoca", "protocol": "as §1"}, "IMP-1 [11]": {"biological_target": "T1, IMP-1", "assay": "In vitro inhibition assay (IPM hydrolysis)", "assay_type": "biochemical", "conditions": "read-out: IC50 for IMP-1", "protocol": "MBLs were incubated with HHIAs in 20 mM HEPES buffer (pH 7.5) containing 200 mM NaCl and 50 µg/mL BSA at 30°C for 5 min. IPM was added at a concentration of 100 µM, and the rate of IPM hydrolysis was monitored at 297 nm. The initial velocity (v0) rates were plotted against HHIA’s logarithmic concentrations, and the data were fitted to a four-parameter variable slope to obtain the half-maximal inhibitor concentration (IC50) values using GraphPad Prism 9 software (GraphPad Software). The inhibition constant (Ki) was determined as follows: v0 was measured after varying the concentrations of IPM and HHIAs, and inverse v0 (1/v0) was plotted against the inverse IPM concentration [1/(IPM)]. Lineweaver–Burk plots were created to obtain Ki values under the competitive inhibition model using the SigmaPlot 14 suite (Hulinks)."}, "E. coli DH5α pBC-NDM-1": {"system": "E. coli DH5α pBC-NDM-1", "assay": "Susceptibility test (microdilution), transformant", "assay_type": "cell-based", "conditions": "E. coli DH5α pBC-NDM-1", "protocol": "as §1"}, "E. coli DH5α pBC-IMP-1": {"system": "E. coli DH5α pBC-IMP-1", "assay": "Susceptibility test (microdilution), transformant", "assay_type": "cell-based", "protocol": "as §1"}, "E. coli DH5α pCL-SMB-1": {"system": "E. coli DH5α pCL-SMB-1", "assay": "Susceptibility test (microdilution), transformant", "assay_type": "cell-based", "conditions": "E. coli DH5α pCL-SMB-1", "protocol": "as §1"}, "[12]": {"system": "IMP-1-producing E. coli NUBL-24", "assay": "Time-killing assay", "assay_type": "cell-based", "conditions": "MPM 1 µg/mL alone", "protocol": "The initial density of IMP-1-producing E. coli NUBL-24 (MPM MIC, 8 µg/mL) was adjusted to approximately 5 × 10^6 colony-forming units (cfu)/mL. Either MPM (1 µg/mL) or 9-HHIA/10-HHIA (50 µg/mL) alone or a combination of the two was added to the bacterial solution, and then incubation was performed at 37°C. LB broth containing bacteria alone was used as a control. At 0, 2, 4, 8, and 12 h after adding the agents, an aliquot of the bacterial culture was removed, diluted, and spotted on LB agar plates to count the viable bacterial cells. The detection limit was set at 333 cfu/mL."}, "[13]": {"conditions": "IPM alone (Control), read-out: IPM MIC"}, "[14]": {"conditions": "MPM alone (Control), read-out: MPM MIC"}}, "note": "Read-outs that look alike come from different tables or passages of the source.", "data": [{"smiles": "CC(C)(O/N=C(\\C(=O)N[C@@H]1C(=O)N2C(C(=O)[O-])=C(C[n+]3ccccc3)CS[C@H]12)c1csc(N)n1)C(=O)O", "note": "[CAZ, ceftazidime]", "values": [{"measurement": "MIC", "setting": "E. coli DH5α pBC-VIM-2; Escherichia coli, read-out: CAZ MIC, CAZ alone (Control)", "value": "4 to 8", "unit": "µg/mL"}]}, {"smiles": "O=C(O)CN(CCN(CC(=O)O)CC(=O)O)CC(=O)O", "note": "[EDTA, reference compound]", "values": [{"measurement": "Zinc ions in IMP-1 after treatment", "setting": "IMP-1 [1]", "value": "completely lost"}, {"measurement": "Melting temperature (Tm) of treated IMP-1", "setting": "IMP-1 [2]", "value": 43.4, "unit": "°C"}]}, {"smiles": "C[C@@H](O)[C@H]1C(=O)N2C(C(=O)O)=C(SCCN=CN)C[C@H]12", "note": "[IPM, imipenem, reference compound]", "values": [{"measurement": "MIC", "setting": "E. coli 426 (IMP-1); [13]", "value": 8, "unit": "µg/mL"}, {"measurement": "MIC", "setting": "[3]; [13]", "value": 32, "unit": "µg/mL"}, {"measurement": "MIC", "setting": "[4]; [13]", "value": "> 64", "unit": "µg/mL"}, {"measurement": "MIC", "setting": "[5]; [13]", "value": 32, "unit": "µg/mL"}, {"measurement": "MIC", "setting": "[6]; [13]", "value": 4, "unit": "µg/mL"}, {"measurement": "MIC", "setting": "[7]; [13]", "value": 8, "unit": "µg/mL"}, {"measurement": "MIC", "setting": "[8]; [13]", "value": 1, "unit": "µg/mL"}, {"measurement": "MIC", "setting": "E. coli NUBL-24 (IMP-1); [13]", "value": 8, "unit": "µg/mL"}, {"measurement": "MIC", "setting": "E. coli NUBL-22 (IMP-6); [13]", "value": 2, "unit": "µg/mL"}, {"measurement": "MIC", "setting": "[9]; [13]", "value": 4, "unit": "µg/mL"}, {"measurement": "MIC", "setting": "E. coli 465 (IMP-1); [13]", "value": 32, "unit": "µg/mL"}, {"measurement": "MIC", "setting": "[10]; [13]", "value": 16, "unit": "µg/mL"}]}, {"smiles": "C=C(CC(=O)O)C(=O)O", "note": "[Itaconic acid, itaconic acid]", "values": [{"measurement": "IC50", "setting": "IMP-1 [11]", "value": "> 1000", "unit": "µM"}, {"measurement": "MPM MIC", "setting": "E. coli DH5α pBC-NDM-1; +agent 6.25 μg/mL", "value": ">64", "unit": "µg/mL"}, {"measurement": "MPM MIC", "setting": "E. coli DH5α pBC-NDM-1; +agent 25 μg/mL", "value": ">64", "unit": "µg/mL"}, {"measurement": "MPM MIC", "setting": "E. coli DH5α pBC-NDM-1; +agent 100 μg/mL", "value": ">64", "unit": "µg/mL"}, {"measurement": "MPM MIC", "setting": "E. coli DH5α pBC-IMP-1; +agent 6.25 μg/mL", "value": 1, "unit": "µg/mL"}, {"measurement": "MPM MIC", "setting": "E. coli DH5α pBC-IMP-1; +agent 25 μg/mL", "value": 1, "unit": "µg/mL"}, {"measurement": "MPM MIC", "setting": "E. coli DH5α pBC-IMP-1; +agent 100 μg/mL", "value": 1, "unit": "µg/mL"}, {"measurement": "CAZ MIC", "setting": "E. coli DH5α pBC-VIM-2; +agent 6.25 μg/mL", "value": 8, "unit": "µg/mL"}, {"measurement": "CAZ MIC", "setting": "E. coli DH5α pBC-VIM-2; +agent 25 μg/mL", "value": 8, "unit": "µg/mL"}, {"measurement": "CAZ MIC", "setting": "E. coli DH5α pBC-VIM-2; +agent 100 μg/mL", "value": 8, "unit": "µg/mL"}, {"measurement": "MPM MIC", "setting": "E. coli DH5α pCL-SMB-1; +agent 6.25 μg/mL", "value": 32, "unit": "µg/mL"}, {"measurement": "MPM MIC", "setting": "E. coli DH5α pCL-SMB-1; +agent 25 μg/mL", "value": 32, "unit": "µg/mL"}, {"measurement": "MPM MIC", "setting": "E. coli DH5α pCL-SMB-1; +agent 100 μg/mL", "value": 32, "unit": "µg/mL"}]}, {"smiles": "C[C@@H](O)[C@H]1C(=O)N2C(C(=O)O)=C(S[C@@H]3CN[C@H](C(=O)N(C)C)C3)[C@H](C)[C@H]12", "note": "[MPM, meropenem, reference compound]", "values": [{"measurement": "Time-kill: MPM alone", "setting": "[12]", "value": "regrew close to the control level at 12 h"}, {"measurement": "MIC", "setting": "E. coli DH5α pBC-IMP-1; Escherichia coli, read-out: MPM MIC, MPM alone (Control)", "value": 1, "unit": "µg/mL"}, {"measurement": "MPM MIC", "setting": "E. coli DH5α pBC-IMP-1; MPM alone (Control)", "value": 1, "unit": "µg/mL"}, {"measurement": "MIC", "setting": "E. coli 426 (IMP-1); [14]", "value": 16, "unit": "µg/mL"}, {"measurement": "MIC", "setting": "[3]; [14]", "value": 32, "unit": "µg/mL"}, {"measurement": "MIC", "setting": "[4]; [14]", "value": "> 64", "unit": "µg/mL"}, {"measurement": "MIC", "setting": "[5]; [14]", "value": "> 64", "unit": "µg/mL"}, {"measurement": "MIC", "setting": "[6]; [14]", "value": 8, "unit": "µg/mL"}, {"measurement": "MIC", "setting": "[7]; [14]", "value": 16, "unit": "µg/mL"}, {"measurement": "MIC", "setting": "[8]; [14]", "value": 64, "unit": "µg/mL"}, {"measurement": "MIC", "setting": "E. coli NUBL-24 (IMP-1); [14]", "value": 8, "unit": "µg/mL"}, {"measurement": "MPM MIC", "setting": "E. coli NUBL-24 (IMP-1); MPM alone (Control)", "value": 8, "unit": "µg/mL"}, {"measurement": "MIC", "setting": "E. coli NUBL-22 (IMP-6); [14]", "value": 32, "unit": "µg/mL"}, {"measurement": "MIC", "setting": "[9]; [14]", "value": 16, "unit": "µg/mL"}, {"measurement": "MIC", "setting": "E. coli 465 (IMP-1); [14]", "value": 32, "unit": "µg/mL"}, {"measurement": "MIC", "setting": "[10]; [14]", "value": 32, "unit": "µg/mL"}]}]}
